Assay results from patent US20060069104A1, “Neurotrophic factor production accelerator” (priority 2002, published 2006).

Test system: GDNF mRNA in cultured astroglia
Assay: Quantification of GDNF mRNA by RT-PCR in cultured astroglia
Assay type: cell-based, Wistar rat
Settings: cultured rat astroglia
Method: Astroglia was prepared from the brain of a 1 to 2-day-old Wistar rat. It was inoculated to a 75 cm^2 culture flask, and incubated in Eagle's minimum essential medium supplemented with 10% fetal bovine serum for 10 to 14 days. Then, it was shaken overnight at 250 rpm, and microglia and oligodendroglia on the astroglia monolayer were removed. Astroglia was dispersed in 0.25% trypsin (1:400, Invitrogen), and inoculated to a 6-well plate. It was further incubated for 7 to 10 days, and confluent cells were used for the experiment.
The cultured astroglia prepared by the above-mentioned method was incubated in serum-free Eagle's minimum essential medium for 48 hours. The total RNA was prepared by AGPC (Acid Guanidinium-Phenol-Chloroform) method (Chomczynski P., and Sacchi N., Anal. Biochem. 162, 156-159 (1987)). […] The fluorescence intensity of the PCR product was imaged by Fluoro Imager (Molecular Dynamics), and fluorescence bands were quantified by NIH Image. The amount of the PCR product of the eurotrophic factor was standardized using the amount of the β-actin PCR product of cDNA, and the amount of relative mRNA was determined. The activity of N-(4-acetyl-1-piperazinyl)-p-fluorobenzamide monohydrate (hereinafter to be also referred to as a test drug.) on neurotrophic factor production was evaluated by a Tukey-Kramer assay. […]

Structure (SMILES): CC(=O)N1CCN(NC(=O)c2ccc(F)cc2)CC1.O [test drug, N-(4-acetyl-1-piperazinyl)-p-fluorobenzamide monohydrate]
- amount of GDNF mRNA (relative mRNA amount standardized using the amount of the β-actin PCR product) (serum-free medium, from 3 hours after the treatment with the test drug, RT-PCR, Tukey-Kramer): significant increase
- time of peak of GDNF mRNA amount after treatment (time-course after treatment with the test drug (FIG. 1)): 6 h
